Legend:
KCL22r cells = experiment: 5-Azacytidine treatment of Ima-resistant KCL22r cells: Ima sensitivity (Ima growth inhibition); assay type: cell-based; details: Ima-resistant KCL22r cell line after 5-AC treatment
Text: (§1) In this study, we have first used, as model system, a couple of Ima-sensitive (KCL22s) and Ima-resistant (KCL22r) KCL22 cell lines. In these cells, Ima resistance is independent by the oncogenic Bcr/Abl activity. We have found a very low level of Shp1 (both mRNA and protein), a protein with a tumour suppressor activity, in the KCL22r resistant cells, when compared to KCL22s sensitive cells. […] Gain-of-function mutations have been described in various hemopoietic neoplasias including Juvenile Chronic Myelomonocytic Leukemia. In Ph+ cells, oncogenic Bcr/Abl protein activates Shp2 through Gab2, an adaptor protein that, once phosphorylated is able to bind SH2 domain of Shp2. Through complex interactions that may involve the two carboxy-terminal tyrosine residues (542 and 580) Shp2 is also a signal transducer of growth factor receptor. We hypothesized that, Shp1, through dephosphorylation, might modulate the activity of Shp2 and constitute an important mechanism of Ima resistance. […] The data on primary cells support the role of Shp1 in Ima resistance in patients.

[1] = system: Shp1 expression in KCL22r cells; experiment: 5-Azacytidine treatment of Ima-resistant KCL22r cells: Shp1 expression; assay type: cell-based; details: Ima-resistant KCL22r cell line; along with demethylation of the SHP1 promoter region
Text: as §1

Nc1ncn([C@@H]2O[C@H](CO)[C@@H](O)[C@H]2O)c(=O)n1 [5-Azacytidine]
Ima sensitivity, i.e. Ima growth inhibition (KCL22r cells): re-established the Ima sensitivity | expression of Shp1 [1]: re-induced expression of Shp1

Reference: US20110312968A1, “METHOD FOR OPTIMIZING THE TREATMENT OF CHRONIC MYELOID LEUKEMIA WITH ABL TYROSINE KINASE INHIBITORS” (priority 2008, published 2011)
